Results on 6 molecules are retold here after patent US4626540A, “Substituted 1-amino-4-nitro-acridinones and methods of treating bacterial infections and leukemia with them” (Warner-Lambert Company, priority 1984, dated 1986).

One experiment concerns Bacillus cereus. Put plainly: In vitro antibacterial (ABMF) microdilution test, Bacillus cereus. Type of experiment: cell-based. The settings on record: Mueller-Hinton broth, 37° C., 16-24 hours, read-out: ABMF minimal inhibitory conc, B. cer. The text has this: (§1) Still another test protocol is the in vitro antibacterial (ABMF) test which is a recognized standard microdilution susceptibility procedure in Mueller-Hinton broth against Gram-positive and Gram-negative bacterial test organisms. The procedure is a modification of a state-of-the-art procedure reported in Manual of Clinical Microbiology, Lennette, E. H., ed., by Barry, A. L. and C. Thornsberry at pages 463-474 and by Gavan, T. L. and A. L. Barry at pages 459-462, American Society for Microbiology, Washington, 1980.
(§2) In the test, a given bacterial culture is used to inoculate individual test wells of microdilution trays containing growth medium and test compound, the latter in a microdilution series: 1000, 333, 111, 37, 12, 4, 1.4, and 0.46 micrograms per milliliter. […] For convenience, values are reported for Escherichia coli, Corynebacterium Sp. ATCC 21698, Branhamella catarrhalis, Streptococcus pneumoniae, and Bacillus cereus.

The subject of a further experiment is Streptococcus pneumoniae. Put plainly: In vitro antibacterial (ABMF) microdilution test, Streptococcus pneumoniae. Type of experiment: cell-based. The settings on record: Mueller-Hinton broth, 37° C., 16-24 hours, read-out: ABMF minimal inhibitory conc, S. pneu.
Text: as §1, §2
Background: In broth dilution the organism is exposed to a series of concentrations in liquid medium.

In experiment [1] the test system is L1210 murine leukemia cell lines. Put plainly: In vitro antitumor screening (PDC test), L1210 murine leukemia cell growth. The class given is cell-based. The settings on record: Mus musculus, 72 h; L1210 cells, 37° C., three days; value is ID50 multiplied by 10^7. The protocol: Another test protocol is the in vitro antitumor screening (PDC test) of compounds of the present invention on L1210 murine leukemia cell lines. L1210 cells, a murine leukemia cell line, were grown in RPMI 1640 supplemented with 5% fetal bovine serum and gentamicin (50 μg/ml).
Drug dilutions were prepared in the apropriate solvent and 20 μl of each dilution were added to 24-well Linbro tissue culture plats, followed by the addition of M 2.0 ml of cell suspension containing 3×10^4 cells per ml. Solvent and medium controls were included in each test. After incubation at 37° C. for three days in 5% CO2, the contents of each well were removed and the cells counted in a ZBI Coulter counter. Percent growth was calculated relative to the controls and the levels of drug activity wre expressed as ID50 in moles per liter using probit paper.

For another experiment, the system named is Branhamella catarrhalis. Briefly: In vitro antibacterial (ABMF) microdilution test, Branhamella catarrhalis. Type of experiment: cell-based. The settings on record: Moraxella catarrhalis; Mueller-Hinton broth, 37° C., 16-24 hours; read-out: ABMF minimal inhibitory conc, B. cat.
Text: as §1, §2

Experiment [2] has as its system lymphocytic leukemia P388. Put plainly: In vivo lymphocytic leukemia P388 test. The arrangement: species or system CD2 F1 mice. The settings on record: Mus musculus, P388, ip, intraperitoneal, once daily for five days, survival time treated/control, read-out: P388 in vivo T/C × 100. The protocol: Another test protocol is the in vivo lymphocytic leukemia P388 test. the animals used are either male or female CD2 F1 mice, six or seven animals per test group. The tumor transplant is by intraperitoneal injection of dilute ascitic fluid containing cells of lymphocytic leukemia P388. The test compounds are administered intraperitoneally once daily for five consecutive days at various doses following tumor inoculation. The animals are weighed and survivors are recorded on a regular basis for 30 days. A compound is designated "toxic" if, at a given dose, all animals die prior to four days after the first injection of drug. A ratio of survival time for treated (T)/control (C) animals is calculated. A criterion for efficacy is a ratio T/C times 100 greater than or equal to 125. See Cancer Chemotherapy Reports, Part 3, 3, 1 (1972) for a comprehensive discussion of the protocol.

A further experiment concerns Escherichia coli. Put plainly: In vitro antibacterial (ABMF) microdilution test, Escherichia coli. Type of experiment: cell-based. The settings on record: Mueller-Hinton broth, 37° C., 16-24 hours, read-out: ABMF minimal inhibitory conc, E. coli.
Text: as §1, §2

The test system of another experiment is HCT-8 cells. Briefly: In vitro proliferating human colon adenocarcinoma (HCA) cell screen, HCT-8 cells.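 Note: ID50 is the molar concentration giving 50% growth inhibition.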 The class given is cell-based. The settings on record: 60-65 hours at 37° C., value is ID50 multiplied by 10^7. How it is done:
One test protocol is the in vitro proliferating human colon adenocarcinoma (HCA) cell screen. In this test, HCT-8 cells (HCA cell line received from Yale University) are trypsinized using trypsin-EDTA. A single cell suspension is achieved by passing the cells through a 26-gauge needle with a 20-cc syringe. A cell suspension is prepared using RPMI 1640+10% FCS+50 μg/ml gentamicin sulfate with a cell concentration of approximately 5,000 cells/ml. The cell suspension is dispensed in Linbro 24-well plates; 1 ml/well. The plates are incubated for approximately 48 hours at 37° C. in a 5% CO2 atmosphere. At this time test compounds are added in the appropriate concentration. Ten μl of the appropriate dilution is added to each well for a titration test. The plates are reincubated an additional 60-65 hours at 37° C. in a 5% CO2 atmosphere. The cells are lysed using a mix of cationic surfactant, glacial acetic acid and sodium chloride. Two ml of the lysed cell suspension from each well is added to 8 ml of diluent. The number of nuclei is determined using a Coulter counter (ZBI model), and a percent growth for each drug concentration is calculated.

Experiment [3] relates to Corynebacterium Sp. ATCC 21698. Put plainly: In vitro antibacterial (ABMF) microdilution test, Corynebacterium Sp. The settings on record: ATCC21698, Mueller-Hinton broth, 37° C., 16-24 hours, read-out: ABMF minimal inhibitory conc, Coryn. Species. The class given is cell-based.
Text: as §1, §2

pIC50: −log10 of the molar value. Where only a bound is given, the exact number is not on record here.

In general, pIC50 refers to the IC50 on a negative log10 scale, so that one unit is a factor of ten. As to `CCN(CC)CCNc1ccc([N+](=O)[O-])c2[nH]c3ccc(O)cc3c(=O)c12` [Example 2, 1-[[2-(Diethylamino)ethyl]amino]-7-hydroxy-4-nitro-9(10H)-acridinone, methanesulfonate (1:1), hydrate (1:1)], the MIC (in the experiment on Bacillus cereus; in the experiment with Streptococcus pneumoniae; in the experiment with Branhamella catarrhalis; in the experiment on Escherichia coli; in experiment [3]) was less than 0.46 µg/mL in each case. Besides, the pIC50 was 8.17 in experiment [1] and 8.35 in the experiment on HCT-8 cells. For the same molecule, the response vs control in vivo at 12.5 mg/kg in experiment [2] worked out at 250%.
Turning to `CCN(CC)CCNc1ccc([N+](=O)[O-])c2[nH]c3ccc(OC)cc3c(=O)c12.CS(=O)(=O)O` [Example 3, 1-[[2-(Diethylamino)ethyl]amino]-7-methoxy-4-nitro-9(10H)-acridinone, methanesulfonate (1:1)], the MIC in the experiment with Bacillus cereus is 4.1 µg/mL; in the experiment on Streptococcus pneumoniae it was less than 0.46 µg/mL; in the experiment with Branhamella catarrhalis, less than 0.46 µg/mL; in the experiment with Escherichia coli, 111 µg/mL; in experiment [3] it was less than 0.46 µg/mL. For the same molecule, the pIC50 in experiment [1] was 5.62; in the experiment on HCT-8 cells, 5.96. Further, the response vs control in vivo at 12.5 mg/kg in experiment [2] was found to be 126%. Further, the response vs control in vivo at 25 mg/kg in experiment [2] is 151%. Besides, in experiment [2], the response vs control in vivo at 50 mg/kg is 178%. Further, in experiment [2], the response vs control in vivo at 100 mg/kg was determined as 237%. In addition, the response vs control in vivo at 200 mg/kg in experiment [2] is 296%.
As for `CCOc1ccc2[nH]c3c([N+](=O)[O-])ccc(NCCN(CC)CC)c3c(=O)c2c1.CS(=O)(=O)O` [Example 4, 1-[[2-(Diethylamino)ethyl]amino]-7-ethoxy-4-nitro-9(10H)-acridinone, methanesulfonate (1:1)], the MIC in the experiment on Bacillus cereus is more than 1000 µg/mL; with Streptococcus pneumoniae, more than 1000 µg/mL; in the experiment with Branhamella catarrhalis, 37 µg/mL; in the experiment on Escherichia coli, more than 1000 µg/mL; in experiment [3], 4.1 µg/mL. For the same molecule, the pIC50 was 6.17 in experiment [1] and 6.40 with HCT-8 cells. In experiment [2], the response vs control in vivo at 12.5 mg/kg was 129%. Further, the response vs control in vivo at 25 mg/kg in experiment [2] amounted to 149%. In experiment [2], the response vs control in vivo at 50 mg/kg is 211%. Besides, the response vs control in vivo at 100 mg/kg in experiment [2] amounted to 273%.
Turning to `CCCOc1ccc2[nH]c3c([N+](=O)[O-])ccc(NCCN(CC)CC)c3c(=O)c2c1.CS(=O)(=O)O` [Example 5, 1-[[2-(Diethylamino)ethyl]amino]-4-nitro-7-propoxy-9(10H)-acridinone, methanesulfonate], the MIC with Bacillus cereus was more than 1000 µg/mL. The MIC in the experiment with Streptococcus pneumoniae was determined as 1000 µg/mL. Besides, the MIC with Branhamella catarrhalis is more than 1000 µg/mL. In addition, in experiment [2], the response vs control in vivo at 12.5 mg/kg is 122%, the response vs control in vivo at 25 mg/kg worked out at 136%, the response vs control in vivo at 50 mg/kg came out at 146% and the response vs control in vivo at 100 mg/kg stood at 164%. Further, the response vs control in vivo at 200 mg/kg in experiment [2] is 186%. Moreover, the MIC with Escherichia coli is more than 1000 µg/mL. Further, the pIC50 in the experiment on HCT-8 cells is 5.71. For the same molecule, the MIC in experiment [3] came out at 0.46 µg/mL.
As for `CCN(CC)CCNc1ccc([N+](=O)[O-])c2[nH]c3ccc(N(C)C)cc3c(=O)c12.CS(=O)(=O)O` [Example 7, 1-[[2-(Diethylamino)ethyl]amino]-7-(dimethylamino)-4-nitro-9(10H)-acridinone, methanesulfonate (1:1)], the MIC with Bacillus cereus was more than 1000 µg/mL; in the experiment with Streptococcus pneumoniae, 37 µg/mL; in the experiment on Branhamella catarrhalis, more than 1000 µg/mL; with Escherichia coli, more than 1000 µg/mL; in experiment [3] it was 111 µg/mL. For the same molecule, the negative-log IC50 (pIC50) in experiment [1] was 5.89; in the experiment with HCT-8 cells, 6.25. The response vs control in vivo at 50 mg/kg in experiment [2] was found to be 33%. Besides, the response vs control in vivo at 100 mg/kg in experiment [2] is 169%.
For `COc1ccc2c(c1)c(=O)c1c(NCCN(C)C)ccc([N+](=O)[O-])c1n2C` [Example 33], the pIC50 in experiment [1] was 5.74; in the experiment with HCT-8 cells, 5.64. The response vs control in vivo at 100 mg/kg in experiment [2] stood at 137%. The response vs control in vivo at 200 mg/kg in experiment [2] was found to be 144%.
